≈ marks a conversion by molar mass, not a printed value. Like-named read-outs stand apart in the source and are kept apart here.
How the values were obtained:
HHV-2 E194 = experiment: Viral CPE inhibition assay (neutral red), HHV-2 E194 wild type; type: cell-based; details: for IC50: 96 h, HHV-2 E194 (WT), Vero-76 cells, neutral red, day 4 post-infection; for SI (Selectivity Index CC50/IC50): HHV-2 E194
Description: (§1) Viral CPE inhibition assay to determine KPB-100 anti-HHV-2 TK-mutant activity: HHV-2 thymidine kinase mutant (TK-minus; TK-), CI-10161 was a patient isolate obtained on 11 November 1986 from Bruce Ronnie at Burrows Welcome. It was amplified one time in MA-104 cells. HHV-2 TK- CI-1253 (18 February 1991) was a patient isolate obtained on 05 February 1992 from Bruce Ronnie at the department of medicine at the University of British Colombia and amplified one time in Vero cells. HHV-2 (E194) was the standard wild-type E194 strain from the USU archives. KPB-100 was suspended in water (100 μg/mL). It was diluted 1/2 in minimum essential medium (MEM) solution, then diluted down further in half-log dilutions in MEM solution with 50 μg/mL gentamicin and 2% foetal bovine serum. Each dilution was added to 5 wells of a 96-well plate with an overnight monolayer of 80–100% confluent Vero-76 cells. Acyclovir and cidofovir were tested in parallel as controls. Three wells of each dilution were then infected with virus, and two wells remained uninfected as toxicity controls. The MOI was approximated 0.001 for CI-1253, 0.002 for CI-10161 and 0.017 for E194. When untreated virus control wells reached near complete cytopathic effect (CPE), which was day-four post-infection in each case, plates were stained with neutral red dye (which measures cell viability, thus can be used for quantifying the vitality of both virus-infected and uninfected, drug-treated cell cultures) for approximately 2 h, then supernatant dye was removed and the incorporated dye was extracted in 50:50 Sorensen citrate buffer/ethanol, then read on a spectrophotometer at 540 nm. Optical density (OD) values were normalized based on cell and virus controls, then IC50, 50% cytotoxic concentration (CC50) values, and Selectivity Index (SI) were calculated by regression analysis.

HHV-2 TK- 1253 = experiment: Viral CPE inhibition assay (neutral red), HHV-2 TK- CI-1253; type: cell-based; details: for IC50: 96 h, HHV-2 TK- 1253, Vero-76 cells, neutral red, day 4 post-infection; for SI (Selectivity Index CC50/IC50): HHV-2 TK- 1253
Description: as §1

HHV-2 TK- 10161 = experiment: Viral CPE inhibition assay (neutral red), HHV-2 TK- CI-10161; type: cell-based; details: for IC50: 96 h, HHV-2 TK- 10161, Vero-76 cells, neutral red, day 4 post-infection; for SI (Selectivity Index CC50/IC50): HHV-2 TK- 10161
Description: as §1

[1] = Cytotoxicity in uninfected cultures (neutral red) run with the CPE inhibition assay; type: cell-based; details: African green monkey, uninfected Vero-76 cells, run in parallel with each virus, read-out: CC50 (50% cytotoxic concentration of compound in uninfected cultures)
Description: as §1

HHV-2 TK- = experiment: Viral CPE inhibition assay, HHV-2 TK- (mean of the two TK- isolates); type: cell-based
Description: as §1

[2] = system: HHV-2, strain G (ATCC VR-734); experiment: Standard plaque reduction assay against HHV-2 WT; type: cell-based
VACV (WR) = experiment: microbe, parasite or virus in culture; type: cell-based; details: Orthopoxvirus vaccinia, Vero 76, 72 h
[3] = system: VACV WR-GFP virus (VV.NP-S-EGFP); experiment: microbe, parasite or virus in culture; type: cell-based, Vaccinia virus; details: for IC50: HeLa, 24 h, read-out: IC50 virus spread inhibition
VACV WR-GFP = type: cell-based, Vaccinia virus
C1008 cells = experiment: Cytotoxicity measured by CPE in plaque reduction; details: 25 μg/mL
HHV-1 (v2424) = experiment: HHV-1 virus yield reduction (VYR) assay; type: cell-based; details: Vero 76, read-out: IC90 (concentration reducing virus yield by 1 log10 or 90%)
Vero-76 cells = details: African green monkey
[4] = Vero 76, mean over TK- isolates 1253 and 10161, CPE inhibition, Vero-76 cells, read-out: mean IC50 against HHV-2 TK-

Row | SMILES | IC50 (HHV-2 E194) [µg/mL] | SI (Selectivity Index CC50/IC50) (HHV-2 E194) | IC50 (HHV-2 TK- 1253) [µg/mL] | SI (Selectivity Index CC50/IC50) (HHV-2 TK- 1253) | IC50 (HHV-2 TK- 10161) [µg/mL] | SI (Selectivity Index CC50/IC50) (HHV-2 TK- 10161) | CC50 at 4 days [1] [µg/mL] | IC50 (HHV-2 TK-; [4]) [µg/mL] | IC50 [2] [µg/mL] | IC50 (VACV (WR)) [µg/mL] | IC50 virus spread inhibition [3] [µg/mL] | IC50 ([3]; Orthopoxvirus vaccinia) [µg/mL] | anti-VACV activity in virus yield inhibition assay (in words) (VACV WR-GFP) | cytotoxicity (cytopathic effect) (C1008 cells) [%] | IC90 (HHV-1 (v2424)) [µg/mL] | inhibition at 4 µg/mL ([3]; Orthopoxvirus vaccinia, 4 μg/mL, read-out: inhibition of virus spread) [%] | IC50 (HHV-2 TK-; Vero 76, read-out: mean IC50 against HHV-2 TK-, mean over TK- isolates 1253 and 10161, CPE inhibition, Vero-76 cells) [µg/mL] | mean IC50 against HHV-2 TK- (HHV-2 TK-; mean over TK- isolates 1253 and 10161, CPE inhibition, Vero-76 cells) [µg/mL] | toxicity estimated visually (Vero-76 cells) [%]
1 | Nc1nc2c(ncn2COCCO)c(=O)[nH]1 [Acyclovir, acyclovir] | 0.49 (≈ 2.18 µM) | >204 | 9.3 (≈ 41.3 µM) | >11 | 15 (≈ 66.6 µM) | >6.7 | > 100 | 12.2 (≈ 54.2 µM) |  |  |  |  |  |  |  |  |  |  | 
2 | COc1cc(O)cc(O[C@@H]2O[C@H](COC(=O)c3cc(OC)c(O)c(OC)c3)[C@@H](O)[C@H](O)[C@H]2O)c1 [KPB-200] |  |  |  |  |  |  |  |  | 2.9 (≈ 6.01 µM) | 7.4 (≈ 15.3 µM) | 13.19 (≈ 27.3 µM) | 13.2 (≈ 27.4 µM) | exhibited anti-VACV activities | < 20 |  |  |  |  | 
3 | Nc1ccn(C[C@@H](CO)OCP(=O)(O)O)c(=O)n1 [Cidofovir, cidofovir] | 4.3 (≈ 15.4 µM) | >23 | 0.22 (≈ 0.788 µM) | >450 | 1.2 (≈ 4.3 µM) | >83 | > 100 | 0.71 (≈ 2.54 µM) |  | 9.7 (≈ 34.7 µM) |  |  |  |  |  |  |  |  | 
4 | COc1cc([C@@H]2c3cc(OC)c(OC)cc3C[C@H](CO)[C@H]2CO[C@@H]2OC[C@@H](O)[C@H](O)[C@H]2O)ccc1O [KPB-100, scaphopetalone] | 5.4 (≈ 10.7 µM) | >4.6 | 4.6 (≈ 9.08 µM) | >5.4 | 4.5 (≈ 8.88 µM) | >5.6 | > 25 |  | 2.5 (≈ 4.94 µM) | 3.1 (≈ 6.12 µM) |  | 1.63 (≈ 3.22 µM) | exhibited anti-VACV activities | < 20 | 3 (≈ 5.92 µM) | ~100 | 4.5 (≈ 8.88 µM) | 4.55 | 20
